The results in this text go back to patent publication US9540361B2, “N-substituted azetidine derivatives” (Merck Sharp & Dohme B.V., priority 2010, dated 2017).

The structures appear in SMILES notation. Counter-ions that a name gives are not always drawn. Marks after values point to notes of the source that are not given here.

Test [1] concerns the target T1, human estrogen receptor α (hERα) (Homo sapiens, UniProt P03372).
T1 sequence (P03372 1-595): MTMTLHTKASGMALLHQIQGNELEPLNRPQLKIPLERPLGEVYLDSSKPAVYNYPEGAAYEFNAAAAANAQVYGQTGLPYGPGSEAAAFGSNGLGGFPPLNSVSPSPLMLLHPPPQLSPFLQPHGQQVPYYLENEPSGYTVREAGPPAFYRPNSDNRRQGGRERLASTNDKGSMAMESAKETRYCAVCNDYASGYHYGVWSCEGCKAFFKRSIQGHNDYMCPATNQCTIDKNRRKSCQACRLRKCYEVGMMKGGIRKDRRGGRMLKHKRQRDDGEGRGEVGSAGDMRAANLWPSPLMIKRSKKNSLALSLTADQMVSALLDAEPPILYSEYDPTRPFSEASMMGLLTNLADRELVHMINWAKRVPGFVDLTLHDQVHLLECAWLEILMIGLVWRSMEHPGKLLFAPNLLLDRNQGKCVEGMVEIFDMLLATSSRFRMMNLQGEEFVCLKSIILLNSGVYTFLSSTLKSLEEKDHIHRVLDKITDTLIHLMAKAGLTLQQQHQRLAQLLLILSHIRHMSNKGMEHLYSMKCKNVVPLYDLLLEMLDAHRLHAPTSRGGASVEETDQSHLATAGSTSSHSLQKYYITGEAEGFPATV
As to the kind of experiment: antagonistic activity in CHO cells co-transfected with hERα, rat oxytocin promoter and luciferase reporter gene. Type of test: cell-based. The following applies: antagonism of 17β-estradiol-induced transactivation, CHO-hERα-RO-LUC; read-out: ERα pIC50 (converted). As for the experimental part:
The antagonistic activity of compounds on the estrogen receptors was determined in an in vitro bioassay with recombinant Chinese Hamster Ovary (CHO) cells stably co-transfected with the human estrogen receptor α (hERα), the rat oxytocin promoter (RO) and the luciferase reporter gene (LUC). […] The antagonistic efficacy, i.e. the amount of maximal inhibition of the 17β-estradiol activated receptor by a compound, is expressed as fraction relative to the maximal inhibition as induced by the standard anti-estrogen ICI 164,384 (efficacy test compound=(maximal inhibition test compound/maximal inhibition ICI 164,384)). A more detailed description of the methodology can be found in De Gooyer et al., Steroids, 68 (2003) 21-30.

In the next test the target is T2, estrogen receptor alpha (Homo sapiens, UniProt P03372).
T2 construct: endogenous in cells; host or cells: T47D human breast cancer cells (ATCC)
T2 sequence (P03372 1-595): T1 sequence (P03372 1-595)
As to the kind of experiment: ERα downregulation assay in T47D breast cancer cells (ERα ELISA). It counts as cell-based. The following applies: downregulation of ERα relative to fulvestrant (100%), 1E-5 M, 24 hours, negative = upregulation. The source says: More specifically, this in vitro bioassay is used to determine the efficacy (fraction of maximal response) of the compound by comparing the data for this compound with those of the reference compound ICI 182,780 (fulvestrant) in the same test (downregulation of fulvestrant is 100% by definition).
A more detailed description of the method used is as follows.
Cell culture. The human epithelial breast cancer cell line T47D (origin: ATCC) was routinely maintained in a 1:1 mixture of Ham's F12 medium and Dulbecco's Modified Eagle Medium (Gibco) enriched with 5% fetal calf serum (Hyclone), 10 mM HEPES pH 7.5 and 100 μg/ml penicillin-streptomycin solution. Cells were grown in 80 cm2 culture flasks (Nunc, Roskilde, Denmark) and kept in an atmosphere of 5% CO2-95% air at 37 degrees Celsius. Cells were subcultured when they reached about 80-90% confluence, resulting in one passage a week. Subculturing includes detaching the cells using Cell Dissociation Buffer [Sigma] and subsequent inoculation at 1:5 or 1:10 in a new Roux flask (175 cc) and\or plating out in Nunclon™ Surface 96 wells microplates. The culture medium needs to be refreshed on day three or four of the incubation, if applicable.
Determination of ERα protein levels: T47D cells in the microplates are incubated with 1E-5 M test compound for 24 hours. The supernatant in all wells is carefully aspirated. Cells are lysed on the microplate and cell lysates are probed for ERα content using an ERα ELISA assay kit (Active Motif).

On to `COCCCN1CC(Oc2ccc(C(=O)c3c(-c4ccc(O)cc4)sc4cc(O)ccc34)cc2)C1.O=C(O)C(F)(F)F` [compound 7k, (6-hydroxy-2-(4-hydroxyphenyl)benzo[b]thiophen-3-yl)(4-(1-(3-methoxypropyl)azetidin-3-yloxy)phenyl)methanone 2,2,2-trifluoroacetate], for which, in test [1], the IC50 is 2 nM. Moreover, on estrogen receptor alpha, the “DR (%)” value was found to be 57%.

In the case of `CCCN1CC(Oc2ccc(C(=O)c3c(-c4ccccc4)sc4cc(O)ccc34)cc2)C1.Cl` [compound 7e, (6-hydroxy-2-phenylbenzo[b]thiophen-3-yl)(4-(1-propylazetidin-3-yloxy)-phenyl)methanone hydrochloride], in test [1], the IC50 is 2 nM. Further, the “DR (%)” value at estrogen receptor alpha was 96%. `CCCN1CC(Oc2ccc(C(=O)c3c(-c4cccc(O)c4)noc3-c3ccccc3F)cc2)C1.Cl` [compound 7ba, (5-(2-fluorophenyl)-3-(3-hydroxyphenyl)isoxazol-4-yl)(4-(1-propylazetidin-3-yloxy)phenyl)methanone hydrochloride]: in test [1], the IC50 was 15.8 nM. In addition, at estrogen receptor alpha, the “DR (%)” value turned out to be 51%. On the same counts, the results for `CCCN1CC(Oc2ccc(C(=O)c3c(-c4sccc4C)noc3-c3ccc(O)cc3)cc2)C1.Cl` [compound 7an, (5-(4-hydroxyphenyl)-3-(3-methylthiophen-2-yl)isoxazol-4-yl)(4-(1-propylazetidin-3-yloxy)phenyl)methanone hydrochloride] are 2 nM and 98%. The corresponding values for `Cl.O=C(c1ccc(OC2CN(C3CCC3)C2)cc1)c1c(-c2ccc(O)cc2)sc2cc(O)ccc12` [compound 7l, (4-(1-cyclobutylazetidin-3-yloxy)phenyl)(6-hydroxy-2-(4-hydroxyphenyl)-benzo[b]thiophen-3-yl)methanone hydrochloride] are 0.794 nM and 30%.

On to `CC(C)N1CC(Oc2ccc(C(=O)c3c(-c4ccc(O)cc4)sc4cc(O)ccc34)cc2)C1` [compound 6e, (6-hydroxy-2-(4-hydroxyphenyl)benzo[b]thiophen-3-yl)(4-(1-isopropylazetidin-3-yloxy)phenyl)methanone hydrochloride], for which, in test [1], the IC50 was 1.58 nM. On to `CCCN1CC(Oc2ccc(Oc3c(-c4ccc(O)cc4)sc4cc(O)ccc34)cc2)C1.O=C(O)C(F)(F)F` [compound 6c, 2-(4-hydroxyphenyl)-3-(4-(1-propylazetidin-3-yloxy)phenoxy)benzo[b]thiophen-6-ol 2,2,2-trifluoroacetate], for which the IC50 in test [1] is 0.251 nM. Further, the “DR (%)” value on estrogen receptor alpha was 7 ^(c) %. The corresponding values for `CCCN1CC(Oc2ccc(C(=O)c3c(-c4ccccc4)noc3-c3ccc(O)cc3)cc2)C1.Cl` [compound 7ai, (5-(4-hydroxyphenyl)-3-phenylisoxazol-4-yl)(4-(1-propylazetidin-3-yloxy)-phenyl)methanone hydrochloride] are 7.94 nM and 96%.

For the compound `C=C(c1ccc(OC2CN(CCC)C2)cc1)c1c(-c2ccccc2Cl)noc1-c1ccc(O)cc1` [compound 7ax, 4-(3-(2-chlorophenyl)-4-(1-(4-(1-propylazetidin-3-yloxy)phenyl)vinyl)isoxazol-5-yl)phenol], in test [1], the IC50 was 0.794 nM. Besides, on estrogen receptor alpha, the “DR (%)” value amounted to 33%. The corresponding values for `CCCN1CC(Oc2ccc(C(=O)c3c(-c4ccccc4Cl)noc3-c3ccccc3)cc2)C1` [compound 7ao, (3-(2-chlorophenyl)-5-phenyl)isoxazol-4-yl)(4-(1-propylazetidin-3-yloxy)-phenyl)methanone hydrochloride] are 25.1 nM and 80%. With `Oc1ccc(-c2onc(-c3ccccc3Cl)c2-c2ccc(OC3CNC3)cc2)cc1` [compound 6f, 4-(4-(4-(azetidin-3-yloxy)phenyl)-3-(2-chlorophenyl)isoxazol-5-yl)phenol], in test [1], the IC50 was 15.8 nM.

In the case of `CCCN1CC(Oc2ccc(C(=C(CC)c3ccccc3)c3ccc(O)cc3)cc2)C1` (mixture of isomers) [compound 6v, (E/Z)-4-(2-phenyl-1-(4-(1-propylazetidin-3-yloxy)phenyl)but-1-enyl)phenol 2,-2,2-trifluoroacetate], the IC50 in test [1] was 0.501 nM. Besides, on estrogen receptor alpha, the “DR (%)” value is −5 ^(d) %. As for `CCCN1CC(Oc2ccc(-c3c(-c4ccccc4Cl)noc3-c3ccc(O)cc3C)cc2)C1` [compound 6k, 4-(3-(2-chlorophenyl)-4-(4-(1-propylazetidin-3-yloxy)phenyl)isoxazol-5-yl)-3-methylphenol 2,2,2-trifluoroacetate], the IC50 in test [1] was 0.501 nM.

In the case of `C[C@]12C[C@H](c3ccc(OC4CN(CC5CC5)C4)cc3)C3c4ccc(O)cc4CC[C@H]3[C@@H]1CC[C@@H]2O` (stereo partly drawn) [compound 6t, (8S,11S,13S,14S,17S)-11-(4-(1-(cyclopropylmethyl)azetidin-3-yloxy)phenyl)-13-methyl-7,8,9,10,11,12,13,14,15,16,17-decahydro-6H-cyclopenta[a]phenanthrene-3,17-diol], the IC50 in test [1] was 3.16 nM. The same measure, in the same setting: the figure for `CCCN1CC(Oc2ccc(-c3c(-c4ccccc4Cl)noc3-c3ccc(O)c(C)c3)cc2)C1` [compound 6l, 4-(3-(2-chlorophenyl)-4-(4-(1-propylazetidin-3-yloxy)phenyl)isoxazol-5-yl)-2-methylphenol 2,2,2-trifluoroacetate] is 0.631 nM; for `CN1CC(Oc2ccc(-c3c(-c4ccc(O)cc4)sc4cc(O)ccc34)cc2)C1` [compound 6a, 2-(4-hydroxyphenyl)-3-(4-(1-methylazetidin-3-yloxy)phenyl)benzo[b]thiophen-6-ol 2,2,2-trifluoroacetate] it is 0.794 nM; for `CCCN1CC(Oc2ccc(Cc3c(-c4ccccc4)c(=O)oc4cc(O)ccc34)cc2)C1` [compound 6r, 7-hydroxy-3-phenyl-4-(4-(1-propylazetidin-3-yloxy)benzyl)-2H-chromen-2-one 2,2,2-trifluoroacetate] it is 1.58 nM. On the same count and under the same terms, the figure for `CCCCN1CC(Oc2ccc(-c3c(-c4ccccc4Cl)noc3-c3ccc(O)cc3)cc2)C1` [compound 6h, 4-(4-(4-(1-butylazetidin-3-yloxy)phenyl)-3-(2-chlorophenyl)isoxazol-5-yl)-phenol hydrochloride] is 0.631 nM.

On to `CCCN1CC(Oc2ccc([C@H]3C[C@]4(C)[C@@H](O)CC[C@H]4[C@@H]4CCc5cc(O)ccc5C34)cc2)C1` (stereo partly drawn) [compound 6s, (8S,11S,13S,14S,17S)-13-methyl-11-(4-(1-propylazetidin-3-yloxy)phenyl)-7,-8,9,10,11,12,13,14,15,16,17-decahydro-6H-cyclopenta[a]phenanthrene-3,17-diol], for which the IC50 in test [1] is 2.51 nM. The same measure, in the same setting: next, `CCCN1CC(Oc2ccc(-c3c(-c4ccccc4C)noc3-c3ccc(O)cc3)cc2)C1` [compound 6j, 4-(4-(4-(1-propylazetidin-3-yloxy)phenyl)-3-o-tolylisoxazol-5-yl)phenol 2,2,2-trifluoroacetate]: 0.398 nM. The same measure, in the same setting: next, `CCC(C)N1CC(Oc2ccc(-c3c(-c4ccccc4Cl)noc3-c3ccc(O)cc3)cc2)C1` (stereo not shown) [compound 6i, 4-(4-(4-(1-sec-butylazetidin-3-yloxy)phenyl)-3-(2-chlorophenyl)isoxazol-5-yl)-phenol hydrochloride]: 1 nM.
